Results taken from ChEMBL document CHEMBL5724914, “Linking interpersonal differences in gut microbiota composition and drug biotransformation activity” (2024).

assay: (§1) The drug is tested on Z-028 corresponding to mouse gut metagenome with ENA study accession number: PRJEB37062 and ENA sample accession number: ERS12561827 for biotransformation under anaerobic condition. The drug concentrations were measured over 9 timepoints collected between 0 and 24 hours of incubation by liquid-chromatography-coupled mass spectrometry (LC–MS); settings: 2 µM
Note: call rule not given here.

Row | Bacterial Biotransformation | SMILES
1 | Compound metabolized | COc1ccnc(C[S+]([O-])c2nc3ccc(OC(F)F)cc3[nH]2)c1OC (stereo not given) [PANTOPRAZOLE]
2 | Compound metabolized | C[C@]12C=CC(=O)C=C1CC[C@@H]1[C@@H]2C(=O)C[C@@]2(C)[C@H]1CC[C@]2(O)C(=O)CO [PREDNISONE]

assay: as §1, with “Z-020” for “Z-028”, “rabbit” for “mouse”, “ERS12561819” for “ERS12561827”; settings: 2 µM

Row | Bacterial Biotransformation | SMILES
3 | Compound metabolized | COc1ccnc(C[S+]([O-])c2nc3ccc(OC(F)F)cc3[nH]2)c1OC (stereo not given) [PANTOPRAZOLE]
4 | Compound metabolized | C[C@]12C=CC(=O)C=C1CC[C@@H]1[C@@H]2C(=O)C[C@@]2(C)[C@H]1CC[C@]2(O)C(=O)CO [PREDNISONE]

settings: human gut metagenome, 24 h, 2 µM

Row | Bacterial Biotransformation | SMILES
5 | Compound metabolized | COc1ccnc(C[S+]([O-])c2nc3ccc(OC(F)F)cc3[nH]2)c1OC (stereo not given) [PANTOPRAZOLE]
6 | Compound metabolized | C[C@]12C=CC(=O)C=C1CC[C@@H]1[C@@H]2C(=O)C[C@@]2(C)[C@H]1CC[C@]2(O)C(=O)CO [PREDNISONE]

assay: as §1, with “Z-022” for “Z-028”, “ERS12561821” for “ERS12561827”; settings: 2 µM

Row | Bacterial Biotransformation | SMILES
7 | Compound metabolized | COc1ccnc(C[S+]([O-])c2nc3ccc(OC(F)F)cc3[nH]2)c1OC (stereo not given) [PANTOPRAZOLE]
8 | Compound metabolized | C[C@]12C=CC(=O)C=C1CC[C@@H]1[C@@H]2C(=O)C[C@@]2(C)[C@H]1CC[C@]2(O)C(=O)CO [PREDNISONE]

settings: human gut metagenome, 24 h, 2 µM; remark: another data set of the same source

Row | Bacterial Biotransformation | SMILES
9 | Compound metabolized | COc1ccnc(C[S+]([O-])c2nc3ccc(OC(F)F)cc3[nH]2)c1OC (stereo not given) [PANTOPRAZOLE]
10 | Compound metabolized | C[C@]12C=CC(=O)C=C1CC[C@@H]1[C@@H]2C(=O)C[C@@]2(C)[C@H]1CC[C@]2(O)C(=O)CO [PREDNISONE]

settings: human gut metagenome, 24 h, 2 µM; remark: another data set of the same source

Row | Bacterial Biotransformation | SMILES
11 | Compound metabolized | COc1ccnc(C[S+]([O-])c2nc3ccc(OC(F)F)cc3[nH]2)c1OC (stereo not given) [PANTOPRAZOLE]
12 | Compound metabolized | C[C@]12C=CC(=O)C=C1CC[C@@H]1[C@@H]2C(=O)C[C@@]2(C)[C@H]1CC[C@]2(O)C(=O)CO [PREDNISONE]

settings: human gut metagenome, 24 h, 2 µM; remark: another data set of the same source

Row | Bacterial Biotransformation | SMILES
13 | Compound metabolized | COc1ccnc(C[S+]([O-])c2nc3ccc(OC(F)F)cc3[nH]2)c1OC (stereo not given) [PANTOPRAZOLE]
14 | Compound metabolized | C[C@]12C=CC(=O)C=C1CC[C@@H]1[C@@H]2C(=O)C[C@@]2(C)[C@H]1CC[C@]2(O)C(=O)CO [PREDNISONE]

assay: as §1, with “Z-029” for “Z-028”, “rat” for “mouse”, “ERS12561828” for “ERS12561827”; settings: 2 µM

Row | Bacterial Biotransformation | SMILES
15 | Compound metabolized | COc1ccnc(C[S+]([O-])c2nc3ccc(OC(F)F)cc3[nH]2)c1OC (stereo not given) [PANTOPRAZOLE]
16 | Compound metabolized | C[C@]12C=CC(=O)C=C1CC[C@@H]1[C@@H]2C(=O)C[C@@]2(C)[C@H]1CC[C@]2(O)C(=O)CO [PREDNISONE]

assay: as §1, with “Z-007” for “Z-028”, “rat” for “mouse”, “ERS12561807” for “ERS12561827”; settings: 2 µM

Row | Bacterial Biotransformation | SMILES
17 | Compound NOT metabolized | COc1ccnc(C[S+]([O-])c2nc3ccc(OC(F)F)cc3[nH]2)c1OC (stereo not given) [PANTOPRAZOLE]
18 | Compound NOT metabolized | C[C@]12C=CC(=O)C=C1CC[C@@H]1[C@@H]2C(=O)C[C@@]2(C)[C@H]1CC[C@]2(O)C(=O)CO [PREDNISONE]

settings: human gut metagenome, 24 h, 2 µM; remark: another data set of the same source

Row | Bacterial Biotransformation | SMILES
19 | Compound metabolized | COc1ccnc(C[S+]([O-])c2nc3ccc(OC(F)F)cc3[nH]2)c1OC (stereo not given) [PANTOPRAZOLE]
20 | Compound metabolized | C[C@]12C=CC(=O)C=C1CC[C@@H]1[C@@H]2C(=O)C[C@@]2(C)[C@H]1CC[C@]2(O)C(=O)CO [PREDNISONE]

assay: as §1, with “WLS-170” for “Z-028”, “human” for “mouse”, “ERS12561762” for “ERS12561827”; settings: 2 µM

Row | Bacterial Biotransformation | SMILES
21 | Compound metabolized | COc1ccnc(C[S+]([O-])c2nc3ccc(OC(F)F)cc3[nH]2)c1OC (stereo not given) [PANTOPRAZOLE]
22 | Compound metabolized | C[C@]12C=CC(=O)C=C1CC[C@@H]1[C@@H]2C(=O)C[C@@]2(C)[C@H]1CC[C@]2(O)C(=O)CO [PREDNISONE]

assay: as §1, with “WLS-077” for “Z-028”, “human” for “mouse”, “ERS12561750” for “ERS12561827”; settings: 2 µM

Row | Bacterial Biotransformation | SMILES
23 | Compound metabolized | COc1ccnc(C[S+]([O-])c2nc3ccc(OC(F)F)cc3[nH]2)c1OC (stereo not given) [PANTOPRAZOLE]
24 | Compound metabolized | C[C@]12C=CC(=O)C=C1CC[C@@H]1[C@@H]2C(=O)C[C@@]2(C)[C@H]1CC[C@]2(O)C(=O)CO [PREDNISONE]

settings: human gut metagenome, 24 h, 2 µM; remark: another data set of the same source

Row | Bacterial Biotransformation | SMILES
25 | Compound metabolized | COc1ccnc(C[S+]([O-])c2nc3ccc(OC(F)F)cc3[nH]2)c1OC (stereo not given) [PANTOPRAZOLE]
26 | Compound metabolized | C[C@]12C=CC(=O)C=C1CC[C@@H]1[C@@H]2C(=O)C[C@@]2(C)[C@H]1CC[C@]2(O)C(=O)CO [PREDNISONE]

settings: human gut metagenome, 24 h, 2 µM; remark: another data set of the same source

Row | Bacterial Biotransformation | SMILES
27 | Compound metabolized | COc1ccnc(C[S+]([O-])c2nc3ccc(OC(F)F)cc3[nH]2)c1OC (stereo not given) [PANTOPRAZOLE]
28 | Compound metabolized | C[C@]12C=CC(=O)C=C1CC[C@@H]1[C@@H]2C(=O)C[C@@]2(C)[C@H]1CC[C@]2(O)C(=O)CO [PREDNISONE]

settings: human gut metagenome, 24 h, 2 µM; remark: another data set of the same source

Row | Bacterial Biotransformation | SMILES
29 | Compound metabolized | COc1ccnc(C[S+]([O-])c2nc3ccc(OC(F)F)cc3[nH]2)c1OC (stereo not given) [PANTOPRAZOLE]
30 | Compound metabolized | C[C@]12C=CC(=O)C=C1CC[C@@H]1[C@@H]2C(=O)C[C@@]2(C)[C@H]1CC[C@]2(O)C(=O)CO [PREDNISONE]

assay: as §1, with “WLS-220” for “Z-028”, “human” for “mouse”, “ERS12561769” for “ERS12561827”; settings: 2 µM

Row | Bacterial Biotransformation | SMILES
31 | Compound metabolized | COc1ccnc(C[S+]([O-])c2nc3ccc(OC(F)F)cc3[nH]2)c1OC (stereo not given) [PANTOPRAZOLE]
32 | Compound metabolized | C[C@]12C=CC(=O)C=C1CC[C@@H]1[C@@H]2C(=O)C[C@@]2(C)[C@H]1CC[C@]2(O)C(=O)CO [PREDNISONE]

settings: human gut metagenome, 24 h, 2 µM; remark: another data set of the same source

Row | Bacterial Biotransformation | SMILES
33 | Compound metabolized | COc1ccnc(C[S+]([O-])c2nc3ccc(OC(F)F)cc3[nH]2)c1OC (stereo not given) [PANTOPRAZOLE]
34 | Compound metabolized | C[C@]12C=CC(=O)C=C1CC[C@@H]1[C@@H]2C(=O)C[C@@]2(C)[C@H]1CC[C@]2(O)C(=O)CO [PREDNISONE]

settings: human gut metagenome, 24 h, 2 µM; remark: another data set of the same source

Row | Bacterial Biotransformation | SMILES
35 | Compound metabolized | COc1ccnc(C[S+]([O-])c2nc3ccc(OC(F)F)cc3[nH]2)c1OC (stereo not given) [PANTOPRAZOLE]
36 | Compound NOT metabolized | C[C@]12C=CC(=O)C=C1CC[C@@H]1[C@@H]2C(=O)C[C@@]2(C)[C@H]1CC[C@]2(O)C(=O)CO [PREDNISONE]

assay: as §1, with “WLS-052” for “Z-028”, “human” for “mouse”, “ERS12561747” for “ERS12561827”; settings: 2 µM

Row | Bacterial Biotransformation | SMILES
37 | Compound metabolized | COc1ccnc(C[S+]([O-])c2nc3ccc(OC(F)F)cc3[nH]2)c1OC (stereo not given) [PANTOPRAZOLE]
38 | Compound metabolized | C[C@]12C=CC(=O)C=C1CC[C@@H]1[C@@H]2C(=O)C[C@@]2(C)[C@H]1CC[C@]2(O)C(=O)CO [PREDNISONE]

assay: as §1, with “WLS-240” for “Z-028”, “human” for “mouse”, “ERS12561773” for “ERS12561827”; settings: 2 µM

Row | Bacterial Biotransformation | SMILES
39 | Compound metabolized | COc1ccnc(C[S+]([O-])c2nc3ccc(OC(F)F)cc3[nH]2)c1OC (stereo not given) [PANTOPRAZOLE]
40 | Compound metabolized | C[C@]12C=CC(=O)C=C1CC[C@@H]1[C@@H]2C(=O)C[C@@]2(C)[C@H]1CC[C@]2(O)C(=O)CO [PREDNISONE]
